Each structure is given as a SMILES string.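 Step 1: Grow cells in 96-well plates. Step 2: Expose to compound for 48 hours at 5 concentrations. Step 3: Interpolate endpoints linearly; if unreached, use highest concentration. Here, GI50 denotes the concentration required for 50% inhibition of growth. TGI denotes the concentration required for complete inhibition of growth.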

Some test systems named below: NCI/ADR-RES ovarian; SK-MEL-5 melanoma; PC-3 prostate; SF-268 CNS; UO-31 renal; SK-OV-3 ovarian; HCT-116 colon; SF-295 CNS; HL-60(TB) leukemia; SK-MEL-2 melanoma.
Experiment in all cases: inhibition of tumour cell growth, NCI panel, 48 h

`N=C(N)SCc1c2ccccc2c(CSC(=N)N)c2ccccc12`: the GI50 in the test on NCI/ADR-RES ovarian was 23.8 µM; in the test on SK-MEL-5 melanoma, 6.03 µM; in the test with PC-3 prostate it was 10.3 µM; in the test with SF-268 CNS, 4.32 µM; in the test with UO-31 renal, 14.1 µM; with SK-OV-3 ovarian, 10.4 µM. Also, the GI50 was 2.59 µM in the test with HCT-116 colon, 5.25 µM in the test on SF-295 CNS, 4.06 µM with HL-60(TB) leukemia and 18 µM with SK-MEL-2 melanoma. Also, the TGI with NCI/ADR-RES ovarian is over 100 µM; with SK-MEL-5 melanoma, 20.2 µM; in the test on PC-3 prostate, 23.9 µM; in the test on SF-268 CNS, 26 µM; with UO-31 renal, 34.5 µM; in the test with SK-OV-3 ovarian, 22.6 µM. The TGI in the test with HCT-116 colon was found to be 16.6 µM; with SF-295 CNS it was 24.2 µM; in the test with HL-60(TB) leukemia, 23.3 µM; with SK-MEL-2 melanoma, 41.3 µM.
In the case of `COc1cc2c(cc1Cc1cccc(Cl)c1F)c(=O)c(C(=O)O)cn2[C@@H](CO)C(C)C`, the GI50 was 4.99 µM in the test on NCI/ADR-RES ovarian; 2.85 µM in the test with SK-MEL-5 melanoma; 2.59 µM with PC-3 prostate; 5.42 µM in the test on SF-268 CNS; 2.62 µM in the test with UO-31 renal; 4.64 µM in the test on SK-OV-3 ovarian. For the same compound, the GI50 in the test with HCT-116 colon is 2.99 µM; with SF-295 CNS it was 2.14 µM; in the test with HL-60(TB) leukemia, 2.81 µM; in the test on SK-MEL-2 melanoma, 3.98 µM. Besides, the TGI came to 19.4 µM with NCI/ADR-RES ovarian; 8.88 µM in the test with SK-MEL-5 melanoma; 9.21 µM in the test on PC-3 prostate; 19.1 µM in the test with SF-268 CNS; 11.9 µM with UO-31 renal; 26.3 µM with SK-OV-3 ovarian. For the same compound, the TGI in the test with HCT-116 colon is 11.7 µM; in the test with SF-295 CNS, 5.53 µM; in the test on HL-60(TB) leukemia, 6.95 µM; in the test with SK-MEL-2 melanoma, 13.8 µM.
Regarding `Cc1ccc2c(c1)c(Sc1ccc(C(=O)NO)cc1)c1n2CN(C)CC1`, the GI50 was 3.88 µM with NCI/ADR-RES ovarian; 2.23 µM in the test with SK-MEL-5 melanoma; 1.5 µM in the test on PC-3 prostate; 1.6 µM with SF-268 CNS; 2.15 µM in the test on UO-31 renal; 1.77 µM with SK-OV-3 ovarian. Moreover, the GI50 in the test with HCT-116 colon is 1.59 µM; in the test on SF-295 CNS, 1.83 µM; with HL-60(TB) leukemia it was 2.35 µM; in the test on SK-MEL-2 melanoma, 1.88 µM. In addition, the TGI in the test with NCI/ADR-RES ovarian is 19 µM; with SK-MEL-5 melanoma it was 6.27 µM; with PC-3 prostate, 3.77 µM; in the test with SF-268 CNS, 3.7 µM; with UO-31 renal, 9.1 µM; in the test on SK-OV-3 ovarian, 3.8 µM. Further, the TGI stood at 3.54 µM in the test on HCT-116 colon, 3.69 µM in the test on SF-295 CNS, 6.4 µM with HL-60(TB) leukemia and 4.21 µM in the test on SK-MEL-2 melanoma.
Take `COc1ccc(Cn2cc3c(c2-c2ccccc2)CCc2cnoc2-3)cc1OC`: the GI50 was 0.324 µM in the test with NCI/ADR-RES ovarian; 0.49 µM with SK-MEL-5 melanoma; 3.08 µM in the test on PC-3 prostate; 3.68 µM with SF-268 CNS; 2.24 µM in the test on UO-31 renal; 1.48 µM with SK-OV-3 ovarian. In addition, the GI50 was 0.482 µM in the test on HCT-116 colon, 0.34 µM in the test with SF-295 CNS, 0.299 µM in the test on HL-60(TB) leukemia and 0.735 µM in the test with SK-MEL-2 melanoma. Also, the TGI with NCI/ADR-RES ovarian was 1.91 µM; in the test with SK-MEL-5 melanoma, 10.4 µM; with PC-3 prostate, over 100 µM; in the test with SF-268 CNS, over 100 µM; in the test with UO-31 renal, over 100 µM; in the test with SK-OV-3 ovarian it was over 100 µM. Besides, the TGI is over 100 µM with HCT-116 colon, over 100 µM in the test on SF-295 CNS, 1.69 µM in the test with HL-60(TB) leukemia and over 100 µM in the test on SK-MEL-2 melanoma.
As for `CCNC(=O)Nc1ccc(Oc2ccnc3ccc4c(ccn4C)c23)cc1`, the GI50 in the test on NCI/ADR-RES ovarian was 55.8 µM; in the test on SK-MEL-5 melanoma, 75.5 µM; in the test on PC-3 prostate, over 100 µM; in the test with SF-268 CNS, 50.7 µM; in the test on UO-31 renal, 92.3 µM; in the test with SK-OV-3 ovarian it was 19.4 µM. For the same compound, the GI50 with HCT-116 colon was 21.2 µM; in the test with SF-295 CNS, 18.9 µM; in the test with HL-60(TB) leukemia, over 100 µM; with SK-MEL-2 melanoma, 45.8 µM. Further, the TGI in the test with NCI/ADR-RES ovarian is over 100 µM; in the test on SK-MEL-5 melanoma, over 100 µM; in the test on PC-3 prostate, over 100 µM; in the test on SF-268 CNS, over 100 µM; in the test with UO-31 renal it was over 100 µM; with SK-OV-3 ovarian it was 56.5 µM. Further, the TGI is over 100 µM in the test on HCT-116 colon, 72.1 µM with SF-295 CNS, over 100 µM in the test with HL-60(TB) leukemia and over 100 µM with SK-MEL-2 melanoma.
Turning to `CC/C(=C(/c1ccc(O)cc1)c1ccc(OCCN)cc1)c1ccccc1`, the GI50 is 3.31 µM in the test on NCI/ADR-RES ovarian; 1.97 µM with SK-MEL-5 melanoma; 2.66 µM in the test with PC-3 prostate; 3.09 µM in the test with SF-268 CNS; 2.72 µM with UO-31 renal; 5.06 µM in the test on SK-OV-3 ovarian. Also, the GI50 in the test with HCT-116 colon is 1.91 µM; with SF-295 CNS it was 1.86 µM; in the test with HL-60(TB) leukemia it was 2.18 µM; in the test on SK-MEL-2 melanoma it was 3.6 µM. Also, the TGI with NCI/ADR-RES ovarian is 10.6 µM; in the test with SK-MEL-5 melanoma, 4.3 µM; in the test with PC-3 prostate it was 8.26 µM; with SF-268 CNS it was 9.58 µM; with UO-31 renal, 8.57 µM; in the test with SK-OV-3 ovarian, 18 µM. Also, the TGI with HCT-116 colon was found to be 4.08 µM; in the test with SF-295 CNS, 4 µM; in the test on HL-60(TB) leukemia it was 5.36 µM; with SK-MEL-2 melanoma it was 8.55 µM.
Consider `C=C1C(=O)O[C@H]2C[C@@H]1CC/C(C)=C/CC/C(C)=C/CC[C@@]2(C)O`, for which the GI50 in the test with NCI/ADR-RES ovarian was over 100 µM; with SK-MEL-5 melanoma it was 37.7 µM; in the test on PC-3 prostate, 29.9 µM; in the test with SF-268 CNS, over 100 µM; in the test on UO-31 renal, 30.9 µM; in the test with SK-OV-3 ovarian, over 100 µM. Further, the GI50 is 17.6 µM with HCT-116 colon, over 100 µM in the test with SF-295 CNS, 20.7 µM with HL-60(TB) leukemia and 46.7 µM with SK-MEL-2 melanoma. The TGI in the test with NCI/ADR-RES ovarian was over 100 µM; in the test on SK-MEL-5 melanoma, over 100 µM; with PC-3 prostate, 95 µM; in the test with SF-268 CNS, over 100 µM; in the test with UO-31 renal, 87.4 µM; with SK-OV-3 ovarian, over 100 µM. The TGI in the test on HCT-116 colon was 32.8 µM; with SF-295 CNS, over 100 µM; with HL-60(TB) leukemia it was 45.7 µM; in the test on SK-MEL-2 melanoma it was over 100 µM.

Values taken from PubChem BioAssay (NCI).
